{"source": "patent US20080021049A1", "about": "“Treatment Of Diet-Related Conditions Using Phospholipase-A2 Inhibitors Comprising Indoles And Related Compounds” (priority 2004, published 2008)", "key": {"[1]": {"target": "human pancreatic secreted PLA2 (hps PLA2) (Homo sapiens, UniProt P04054)", "sequence (P04054 23-148)": "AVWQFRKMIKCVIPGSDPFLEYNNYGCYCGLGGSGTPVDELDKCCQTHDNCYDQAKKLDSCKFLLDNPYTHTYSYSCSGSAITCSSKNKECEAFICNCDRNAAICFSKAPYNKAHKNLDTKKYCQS", "details": "reported literature data; cited from earlier work"}, "[2]": {"target": "porcine pancreatic secreted PLA2 (pps PLA2) (Sus scrofa, UniProt P00592)", "sequence (P00592 23-146)": "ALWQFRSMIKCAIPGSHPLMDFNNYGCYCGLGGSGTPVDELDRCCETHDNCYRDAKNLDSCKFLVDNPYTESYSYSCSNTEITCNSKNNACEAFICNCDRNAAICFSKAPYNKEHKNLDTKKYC", "details": "reported literature data; cited from earlier work"}, "Caco-2 cells [3]": {"tested_on": "Caco-2 cells"}, "[4]": {"type": "in vivo, mice", "details": "10 weeks"}, "[5]": {"experiment": "Pharmokinetic study, bioavailability (Example 6C)", "type": "in vivo, mice", "description": "This example characterized ILY-4001 [2-(3-(2-amino-2-oxoacetyl)-1-(biphenyl-2-ylmethyl)-2-methyl-1H-indol-4-yloxy)acetic acid], alternatively referred to herein as methyl indoxam, with respect to activity, as determined by IC50 assay (Example 6A), with respect to cell absorption, as determined by in-vitro Caco-2 assay (Example 6B) and with respect to bioavailability, as determined using in-vivo mice studies (Example 6C).\nBioavailability was calculated as a ratio of AUC-oral/AUC-intravenous (IV). To determine this ratio, a first set of subject animals were given a measured intravenous (IV) dose of ILY-4001, followed by a determination of ILY-4001 levels in the blood at various time points after administration (e.g., 5 minutes through 24 hours). Another second set of animals was similarly dosed using oral administration, with blood levels of ILY-4001 determined at various time points after administration (e.g., 30 minutes through 24 hours). The level of ILY-4001 in systemic circulation were determined by generally accepted methods (for example as described in Evans, G., A Handbook of Bioanalysis and Drug Metabolism. Boca Raton, CRC Press (2004)). Specifically, […]/mass spectrometry/mass spectrometry (LC/MS/MS) analytical methods were used to quantitate plasma concentrations of ILY-4001 after oral and intravenous administration. […]"}, "Caco-2 cells [6]": {"tested_on": "Caco-2 cells", "experiment": "Caco-2 permeability study (Example 6B)"}, "mouse PLA2 IB enzyme": {"target": "mouse PLA2 IB enzyme (Mus musculus, UniProt Q9Z0Y2)", "sequence (Q9Z0Y2 23-146)": "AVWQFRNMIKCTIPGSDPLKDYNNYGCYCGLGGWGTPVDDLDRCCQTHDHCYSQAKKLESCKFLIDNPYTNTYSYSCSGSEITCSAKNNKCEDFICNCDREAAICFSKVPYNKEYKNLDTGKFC", "details": "pyrene substrate release from vesicles (Singer, Ghomashchi et al. 2002); read-out: IC50 versus the mouse PLA2 IB enzyme; cited from earlier work"}, "human PLA2 IB enzyme": {"target": "human PLA2 IB enzyme (Homo sapiens, UniProt P04054)", "sequence (P04054 23-148)": "as the sequence (P04054 23-148) above", "details": "pyrene substrate release from vesicles (Singer, Ghomashchi et al. 2002); read-out: IC50 versus the human PLA2 IB enzyme; cited from earlier work"}, "[7]": {"type": "in vivo, mice", "details": "for body weight gain compared to wild-type control group: week 4 and week 10"}, "[8]": {"type": "in vivo, mice", "details": "low dose 25 mg/kg/day in diet"}, "Stability at low pH": {"experiment": "Stability at low pH", "type": "physicochemical"}}, "note": "Read-outs that look alike come from different tables or passages of the source.", "data": [{"compound": "Cc1c(CC(=O)NN)c2cc(OCCCC(=O)O)ccc2n1Cc1ccccc1", "values": [{"measurement": "IC50 (μM) hps PLA2", "setting": "[1]", "result": "no activity"}, {"measurement": "IC50 (μM) pps PLA2", "setting": "[2]", "result": "no activity"}]}, {"compound": "Cc1c(C(=O)C(N)=O)c2c(CCC(=O)O)cccc2n1Cc1ccccc1", "values": [{"measurement": "IC50", "setting": "[1]", "result": "> 100", "unit": "µM"}]}, {"compound": "Cc1c(CC(N)=O)c2c(OCC(=O)O)cccc2n1Cc1ccccc1-c1ccccc1", "values": [{"measurement": "IC50", "setting": "[1]", "result": 4.09, "unit": "µM"}, {"measurement": "IC50", "setting": "[2]", "result": 0.014, "unit": "µM"}]}, {"compound": "Cc1c(CC(N)=O)c2c(OCC(=O)O)cccc2n1Cc1cccc(Cl)c1", "values": [{"measurement": "IC50", "setting": "[1]", "result": 1.2, "unit": "µM"}, {"measurement": "IC50", "setting": "[2]", "result": 0.02, "unit": "µM"}]}, {"compound": "Lucifer Yellow", "values": [{"measurement": "apparent permeability (Papp)", "setting": "Caco-2 cells [3]", "result": "around 2.82×10^−7+/−0.37×10^−7 cm/s"}]}, {"compound": "Cc1c(C(=O)C(N)=O)c2c(/C=C/C(=O)O)cccc2n1Cc1ccccc1", "values": [{"measurement": "IC50", "setting": "[1]", "result": "> 100", "unit": "µM"}]}, {"compound": "Cc1c(C(=O)C(N)=O)c2c(OCC(=O)O)cccc2n1Cc1ccccc1-c1ccccc1", "note": "[ILY-4001, 2-(3-(2-amino-2-oxoacetyl)-1-(biphenyl-2-ylmethyl)-2-methyl-1H-indol-4-yloxy)acetic acid]", "values": [{"measurement": "plasma level of cholesterol", "setting": "[4]; high dose 90 mg/kg/day in diet", "result": "substantially reduced"}, {"measurement": "plasma level of triglycerides", "setting": "[4]; high dose 90 mg/kg/day in diet", "result": "substantially reduced"}, {"measurement": "plasma level of cholesterol", "setting": "[4]; low dose 25 mg/kg/day in diet", "result": "substantially reduced"}, {"measurement": "plasma level of triglycerides", "setting": "[4]; low dose 25 mg/kg/day in diet", "result": "substantially reduced"}, {"measurement": "bioavailability", "setting": "[5]; mouse, plasma, oral, 30 mg/kg, read-out: % F (bioavailability)", "result": 28, "unit": "%"}, {"measurement": "level of non-absorption from the GI tract into systemic circulation", "setting": "[5]; oral 30 mg/kg", "result": "~72", "unit": "%"}, {"measurement": "apparent permeability (Papp)", "setting": "Caco-2 cells [6]; 50 ug/ml in apical well, sampled basolateral, Caco-2 monolayer", "result": "around 1.66×10^−7 cm/s"}, {"measurement": "absorption from the GI lumen", "setting": "Caco-2 cells [6]; based on Caco-2 assays and pharmokinetic studies", "result": "relatively low absorption"}, {"measurement": "IC50", "setting": "mouse PLA2 IB enzyme", "result": "~0.15", "unit": "µM"}, {"measurement": "IC50", "setting": "human PLA2 IB enzyme", "result": "~0.2", "unit": "µM"}, {"measurement": "body weight gain modulation relative to PLA2 (−/−) mice", "setting": "[7]; 25 mg/kg/d (low dose) in diet, ten weeks", "result": "comparable to that achieved in the PLA2 (−/−) mice"}, {"measurement": "body weight gain modulation relative to PLA2 (−/−) mice", "setting": "[7]; 25 mg/kg/d in diet, four weeks", "result": "approaching that achieved in the PLA2 (−/−) mice"}, {"measurement": "body weight gain compared to wild-type control group", "setting": "[7]; 25 mg/kg/d in diet", "result": "significantly reduced body weight gains"}, {"measurement": "body weight gain modulation relative to PLA2 (−/−) mice", "setting": "[7]; 90 mg/kg/d in diet, four weeks", "result": "approaching that achieved in the PLA2 (−/−) mice"}, {"measurement": "body weight gain compared to wild-type control group", "setting": "[7]; 90 mg/kg/d in diet", "result": "significantly reduced body weight gains"}, {"measurement": "fasting glucose levels", "setting": "[8]; week four", "result": "moderately beneficial effect"}, {"measurement": "fasting glucose levels", "setting": "[8]; week ten", "result": "a beneficial effect was not observed"}, {"measurement": "stability at low pH", "setting": "Stability at low pH", "result": "stable at low pH"}]}]}
